Source: ChEMBL document CHEMBL4024707, “Using gene expression database to uncover biology functions of 1,4-disubstituted 1,2,3-triazole analogues synthesized via a copper (I)-catalyzed reaction” (Eur J Med Chem, 2017)
Activity calls are given as the source filed them. No cut-off for these calls is given here.

Columns and labels:
Hep 3B2 [1] = test: Cell cycle arrest in human Hep3B cells assessed as accumulation at G0/G1 phase at 2.5 uM after 72 hrs by propidium iodide staining based flow cytometry (reference value: 41.6 to 46.2%); format: functional
Hep 3B2 [2] = test: Cell cycle arrest in human Hep3B cells assessed as accumulation at sub-G1 phase at 40 uM after 24 hrs by propidium iodide staining based flow cytometry (reference value: 1.9 to 3.6%); format: functional
Hep 3B2 [3] = test: Cell cycle arrest in human Hep3B cells assessed as accumulation at G0/G1 phase at 40 uM after 48 hrs by propidium iodide staining based flow cytometry (reference value: 39.7 to 40.4%); format: functional
Hep 3B2 [4] = test: Cell cycle arrest in human Hep3B cells assessed as accumulation at S phase at 40 uM after 48 hrs by propidium iodide staining based flow cytometry (reference value: 20.8 to 24%); format: functional
Hep 3B2 [5] = test: Cell cycle arrest in human Hep3B cells assessed as accumulation at G0/G1 phase at 40 uM after 24 hrs by propidium iodide staining based flow cytometry (reference value: 36.3 to 39.0%); format: functional
Hep 3B2 [6] = test: Cell cycle arrest in human Hep3B cells assessed as accumulation at G0/G1 phase at 5 uM after 48 hrs by propidium iodide staining based flow cytometry (reference value: 39.7 to 40.4%); format: functional
Hep 3B2 [7] = test: Cell cycle arrest in human Hep3B cells assessed as accumulation at G2/M phase at 2.5 uM after 72 hrs by propidium iodide staining based flow cytometry (reference value: 28.7 to 32.3%); format: functional
Hep 3B2 [8] = test: Cell cycle arrest in human Hep3B cells assessed as accumulation at sub-G1 phase at 40 uM after 72 hrs by propidium iodide staining based flow cytometry (reference value: 0.6 to 3.3%); format: functional
Hep 3B2 [9] = test: Induction of autophagy in human Hep3B cells at 40 uM after 72 hrs by acridine orange staining based flow cytometry (reference value: 1.1 to 4%); format: functional
Hep 3B2 [10] = test: Cell cycle arrest in human Hep3B cells assessed as accumulation at S phase at 2.5 uM after 48 hrs by propidium iodide staining based flow cytometry (reference value: 20.8 to 24%); format: functional
Hep 3B2 [11] = test: Cell cycle arrest in human Hep3B cells assessed as accumulation at G0/G1 phase at 2.5 uM after 24 hrs by propidium iodide staining based flow cytometry (reference value: 36.3 to 39.0%); format: functional
Hep 3B2 [12] = test: Down regulation of ZNF586 expression in human Hep3B cells at 1 uM after 6 to 24 hrs by L1000 expression profiling method relative to control; format: functional
Hep 3B2 [13] = test: Down regulation of SNX13 expression in human Hep3B cells at 1 uM after 6 to 24 hrs by L1000 expression profiling method relative to control; format: functional
Hep 3B2 [14] = test: Effect on total GSK3beta expression in human Hep3B cells assessed as ratio of GSKbeta to beta-actin level at 10 uM after 48 hrs by Western blot analysis; format: cell-based; conditions: hep 3b2, 48 h
Hep 3B2 [15] = test: Down regulation of DUSP11 expression in human Hep3B cells at 1 uM after 6 to 24 hrs by L1000 expression profiling method relative to control; format: functional
Hep 3B2 [16] = test: Growth inhibition of human Hep3B cells at 10 uM after 48 hrs in presence of curcumin by MTT assay; format: functional
Hep 3B2 [17] = test: Down regulation of IL1B expression in human Hep3B cells at 1 uM after 6 to 24 hrs by L1000 expression profiling method relative to control; format: functional
Hep 3B2 [18] = test: Cytotoxicity against human Hep3B cells after 6 days by MTT assay; format: functional, cell-based; conditions: 144 h
Hep 3B2 [19] = test: Down regulation of SHB expression in human Hep3B cells at 1 uM after 6 to 24 hrs by L1000 expression profiling method relative to control; format: functional
Hep 3B2 [20] = test: Growth inhibition of human Hep3B cells at 20 uM up to 72 hrs by MTT assay; format: functional, cell-based
Hep 3B2 [21] = test: Down regulation of FAM69A expression in human Hep3B cells at 1 uM after 6 to 24 hrs by L1000 expression profiling method relative to control; format: functional
Hep 3B2 [22] = test: Down regulation of CHAC1 expression in human Hep3B cells at 1 uM after 6 to 24 hrs by L1000 expression profiling method relative to control; format: functional
Hep 3B2 [23] = test: Down regulation of HIST2H2BE expression in human Hep3B cells at 1 uM after 6 to 24 hrs by L1000 expression profiling method relative to control; format: functional
Hep 3B2 [24] = test: Down regulation of PIK3CA expression in human Hep3B cells at 1 uM after 6 to 24 hrs by L1000 expression profiling method relative to control; format: functional
HT-29 = test: Cytotoxicity against human HT-29 cells after 6 days by MTT assay; format: functional, cell-based; conditions: HT-29, 144 h
Hep 3B2 [25] = test: Down regulation of PTPRC expression in human Hep3B cells at 1 uM after 6 to 24 hrs by L1000 expression profiling method relative to control; format: functional
Hep 3B2 [26] = test: Down regulation of NVL expression in human Hep3B cells at 1 uM after 6 to 24 hrs by L1000 expression profiling method relative to control; format: functional
Hep 3B2 [27] = test: Down regulation of PTK2B expression in human Hep3B cells at 1 uM after 6 to 24 hrs by L1000 expression profiling method relative to control; format: functional
Hep 3B2 [28] = test: Down regulation of PLA2G4A expression in human Hep3B cells at 1 uM after 6 to 24 hrs by L1000 expression profiling method relative to control; format: functional
Hep 3B2 [29] = test: Down regulation of CD40 expression in human Hep3B cells at 1 uM after 6 to 24 hrs by L1000 expression profiling method relative to control; format: functional
Hep 3B2 [30] = test: Down regulation of ARL4C expression in human Hep3B cells at 1 uM after 6 to 24 hrs by L1000 expression profiling method relative to control; format: functional
Hep 3B2 [31] = test: Down regulation of EXT1 expression in human Hep3B cells at 1 uM after 6 to 24 hrs by L1000 expression profiling method relative to control; format: functional
Hep 3B2 [32] = test: Up regulation of CCND1 expression in human Hep3B cells at 1 uM after 6 to 24 hrs by L1000 expression profiling method relative to control; format: functional
Hep 3B2 [33] = test: Up regulation of RPS6KA1 expression in human Hep3B cells at 1 uM after 6 to 24 hrs by L1000 expression profiling method relative to control; format: functional
Hep 3B2 [34] = test: Down regulation of ORC1 expression in human Hep3B cells at 1 uM after 6 to 24 hrs by L1000 expression profiling method relative to control; format: functional
Hep 3B2 [35] = test: Cell cycle arrest in human Hep3B cells assessed as accumulation at G2/M phase at 10 uM after 48 hrs in absence of curcumin by propidium iodide staining based flow cytometry (reference value: 36.6 +/- 2.9%); format: functional
Hep 3B2 [36] = test: Down regulation of TGFB3 expression in human Hep3B cells at 1 uM after 6 to 24 hrs by L1000 expression profiling method relative to control; format: functional

`COc1ccc(CNC(=O)Nc2ncc([N+](=O)[O-])s2)cc1` showed an Activity (Hep 3B2 [1]) of 42.3%, an Activity (Hep 3B2 [2]) of 6.5% and an Activity (Hep 3B2 [3]) of 34.7%. The Activity (Hep 3B2 [4]) was 14.9%, the Activity (Hep 3B2 [5]) was 35% and the Activity (Hep 3B2 [6]) was 38.5%. It also gave an Activity (Hep 3B2 [7]) of 35.3%, an Activity (Hep 3B2 [8]) of 5.4% and an Activity (Hep 3B2 [9]) of 23.3%. For the same compound, the Activity (Hep 3B2 [10]) was 23.2% and the Activity (Hep 3B2 [11]) was 36.8%.
Work on `O=C1COc2ccccc2N1Cc1cn(CCC2OCCO2)nn1` yielded a log2FC (Hep 3B2 [12]) of -4.0824, a log2FC (Hep 3B2 [13]) of -4.142 and a Ratio (Hep 3B2 [14]) of 0.8. It also gave a log2FC (Hep 3B2 [15]) of -3.3243, a CI (Hep 3B2 [16]) of 0.89 and a log2FC (Hep 3B2 [17]) of -3.3463. For the same compound, the IC50 (Hep 3B2 [18]) was 0.5 µM, the log2FC (Hep 3B2 [19]) was -3.2569 and the “growth inhibition (GI)” value (Hep 3B2 [20]) was “Active”. It also gave a log2FC (Hep 3B2 [21]) of -4.3309, a log2FC (Hep 3B2 [22]) of -4.0849 and a log2FC (Hep 3B2 [23]) of -4.2274. The log2FC (Hep 3B2 [24]) was -4.2586, the IC50 (HT-29) was 5.7 µM and the log2FC (Hep 3B2 [25]) was -3.9957. For the same compound, the log2FC (Hep 3B2 [26]) was -3.779, the log2FC (Hep 3B2 [27]) was -3.3744 and the log2FC (Hep 3B2 [28]) was -3.7476. It also gave a log2FC (Hep 3B2 [29]) of -3.3087, a log2FC (Hep 3B2 [30]) of -3.744 and a log2FC (Hep 3B2 [31]) of -4.2621. For the same compound, the log2FC (Hep 3B2 [32]) was 3.2544, the log2FC (Hep 3B2 [33]) was 3.2908 and the log2FC (Hep 3B2 [34]) was -3.3272. For the same compound, the Activity (Hep 3B2 [35]) was 37.1% and the log2FC (Hep 3B2 [36]) was -3.4573.
